Publication PMC10733463, “Berberine-microbiota interplay: orchestrating gut health through modulation of the gut microbiota and metabolic transformation into bioactive metabolites” (Frontiers in Pharmacology, 2023)

Test system: caecal microbiota cultures
Assay: 16S sequencing of total (DNA) and active (cDNA) community in caecal microbiota cultures, BBR vs Control
Type: cell-based, broiler chicken
Settings: 48 h

For COc1ccc2cc3[n+](cc2c1OC)CCc1cc2c(cc1-3)OCO2 [Berberine, Berberine chloride], the “L2FC BBRDNA vs ControlDNA” value was 0.44, the “L2FC BBRRNA vs BBRDNA” value was 3.40 and the “L2FC BBRRNA vs ControlRNA” value was 1.34. For the same molecule, the “L2FC BBRRNA vs ControlRNA” value (OTU 40798 (Butyricicoccus), active (cDNA) community) was 0.45, the “L2FC BBRRNA vs BBRDNA” value (OTU 40798 (Butyricicoccus), active vs total community in BBR group) was -4.40 and the “L2FC BBRDNA vs ControlDNA” value (OTU 40798 (Butyricicoccus), total (DNA) community) was 0.83. The “L2FC BBRRNA vs ControlRNA” value (OTU 109633 (Eubacterium), active (cDNA) community) was 1.92, the “L2FC BBRRNA vs BBRDNA” value (OTU 109633 (Eubacterium), active vs total community in BBR group) was -0.64 and the “L2FC BBRDNA vs ControlDNA” value (OTU 109633 (Eubacterium), total (DNA) community) was 1.75. The “L2FC BBRRNA vs ControlRNA” value (OTU 129401 (Family_Ruminococcaceae), active (cDNA) community) was 1.00, the “L2FC BBRRNA vs BBRDNA” value (OTU 129401 (Family_Ruminococcaceae), active vs total community in BBR group) was 1.99 and the “L2FC BBRDNA vs ControlDNA” value (OTU 129401 (Family_Ruminococcaceae), total (DNA) community) was 0.84. For the same molecule, the “L2FC BBRRNA vs ControlRNA” value (OTU 157573 (Alistipes), active (cDNA) community) was -0.29, the “L2FC BBRRNA vs BBRDNA” value (OTU 157573 (Alistipes), active vs total community in BBR group) was 1.91 and the “L2FC BBRDNA vs ControlDNA” value (OTU 157573 (Alistipes), total (DNA) community) was 0.19. The “L2FC BBRRNA vs ControlRNA” value (OTU 157772 (uncultured Ruminococcaceae), active (cDNA) community) was -0.27, the “L2FC BBRRNA vs BBRDNA” value (OTU 157772 (uncultured Ruminococcaceae), active vs total community in BBR group) was 1.68 and the “L2FC BBRDNA vs ControlDNA” value (OTU 157772 (uncultured Ruminococcaceae), total (DNA) community) was -0.36. For the same molecule, the “L2FC BBRRNA vs ControlRNA” value (OTU 180099 (uncultured Lachnospiraceae), active (cDNA) community) was -0.96, the “L2FC BBRRNA vs BBRDNA” value (OTU 180099 (uncultured Lachnospiraceae), active vs total community in BBR group) was -0.59 and the “L2FC BBRDNA vs ControlDNA” value (OTU 180099 (uncultured Lachnospiraceae), total (DNA) community) was -1.55. For the same molecule, the “L2FC BBRRNA vs ControlRNA” value (OTU 186881 (Anaerofilum), active (cDNA) community) was -1.11, the “L2FC BBRRNA vs BBRDNA” value (OTU 186881 (Anaerofilum), active vs total community in BBR group) was -0.59 and the “L2FC BBRDNA vs ControlDNA” value (OTU 186881 (Anaerofilum), total (DNA) community) was -1.53. The “L2FC BBRRNA vs ControlRNA” value (OTU 193240 (Butyricicoccus), active (cDNA) community) was -1.08, the “L2FC BBRRNA vs BBRDNA” value (OTU 193240 (Butyricicoccus), active vs total community in BBR group) was -1.42 and the “L2FC BBRDNA vs ControlDNA” value (OTU 193240 (Butyricicoccus), total (DNA) community) was -1.34. For the same molecule, the “L2FC BBRRNA vs ControlRNA” value (OTU 196831 (Oscillibacter), active (cDNA) community) was 0.14, the “L2FC BBRRNA vs BBRDNA” value (OTU 196831 (Oscillibacter), active vs total community in BBR group) was 2.09 and the “L2FC BBRDNA vs ControlDNA” value (OTU 196831 (Oscillibacter), total (DNA) community) was 0.24. The “L2FC BBRRNA vs ControlRNA” value (OTU 199555 ([Ruminococcus] torques group), active (cDNA) community) was -1.39, the “L2FC BBRRNA vs BBRDNA” value (OTU 199555 ([Ruminococcus] torques group), active vs total community in BBR group) was -0.15 and the “L2FC BBRDNA vs ControlDNA” value (OTU 199555 ([Ruminococcus] torques group), total (DNA) community) was -1.72. The “L2FC BBRRNA vs ControlRNA” value (OTU 233953 (Erysipelatoclostridium), active (cDNA) community) was -1.85, the “L2FC BBRRNA vs BBRDNA” value (OTU 233953 (Erysipelatoclostridium), active vs total community in BBR group) was -0.21 and the “L2FC BBRDNA vs ControlDNA” value (OTU 233953 (Erysipelatoclostridium), total (DNA) community) was -1.14. For the same molecule, the “L2FC BBRRNA vs ControlRNA” value (OTU 234912 (Ruminococcaceae UCG-013), active (cDNA) community) was -2.52, the “L2FC BBRRNA vs BBRDNA” value (OTU 234912 (Ruminococcaceae UCG-013), active vs total community in BBR group) was -0.46 and the “L2FC BBRDNA vs ControlDNA” value (OTU 234912 (Ruminococcaceae UCG-013), total (DNA) community) was -3.19. The “L2FC BBRRNA vs ControlRNA” value (OTU 240271 (uncultured Ruminococcaceae), active (cDNA) community) was 0.20, the “L2FC BBRRNA vs BBRDNA” value (OTU 240271 (uncultured Ruminococcaceae), active vs total community in BBR group) was 1.89 and the “L2FC BBRDNA vs ControlDNA” value (OTU 240271 (uncultured Ruminococcaceae), total (DNA) community) was 0.33. The “L2FC BBRRNA vs ControlRNA” value (OTU 249142 ([Ruminococcus] torques group), active (cDNA) community) was -3.17, the “L2FC BBRRNA vs BBRDNA” value (OTU 249142 ([Ruminococcus] torques group), active vs total community in BBR group) was -0.87 and the “L2FC BBRDNA vs ControlDNA” value (OTU 249142 ([Ruminococcus] torques group), total (DNA) community) was -2.54. For the same molecule, the “L2FC BBRRNA vs ControlRNA” value (OTU 293975 (uncultured Lachnospiraceae), active (cDNA) community) was -2.01, the “L2FC BBRRNA vs BBRDNA” value (OTU 293975 (uncultured Lachnospiraceae), active vs total community in BBR group) was 0.18 and the “L2FC BBRDNA vs ControlDNA” value (OTU 293975 (uncultured Lachnospiraceae), total (DNA) community) was -1.62. The “L2FC BBRRNA vs ControlRNA” value (OTU 294545 (Ruminiclostridium), active (cDNA) community) was -0.23, the “L2FC BBRRNA vs BBRDNA” value (OTU 294545 (Ruminiclostridium), active vs total community in BBR group) was 1.73 and the “L2FC BBRDNA vs ControlDNA” value (OTU 294545 (Ruminiclostridium), total (DNA) community) was 0.21. For the same molecule, the “L2FC BBRRNA vs ControlRNA” value (OTU 308157 (Butyricicoccus), active (cDNA) community) was 0.37, the “L2FC BBRRNA vs BBRDNA” value (OTU 308157 (Butyricicoccus), active vs total community in BBR group) was -1.55 and the “L2FC BBRDNA vs ControlDNA” value (OTU 308157 (Butyricicoccus), total (DNA) community) was 0.47. The “L2FC BBRRNA vs ControlRNA” value (OTU 315223 (Anaerotruncus), active (cDNA) community) was 0.81, the “L2FC BBRRNA vs BBRDNA” value (OTU 315223 (Anaerotruncus), active vs total community in BBR group) was 2.28 and the “L2FC BBRDNA vs ControlDNA” value (OTU 315223 (Anaerotruncus), total (DNA) community) was 0.02. The “L2FC BBRRNA vs ControlRNA” value (OTU 349246 (Ruminiclostridium 9), active (cDNA) community) was -1.09, the “L2FC BBRRNA vs BBRDNA” value (OTU 349246 (Ruminiclostridium 9), active vs total community in BBR group) was 1.04 and the “L2FC BBRDNA vs ControlDNA” value (OTU 349246 (Ruminiclostridium 9), total (DNA) community) was -0.39. The “L2FC BBRRNA vs ControlRNA” value (OTU 350256 (Intestinimonas), active (cDNA) community) was -0.58, the “L2FC BBRRNA vs BBRDNA” value (OTU 350256 (Intestinimonas), active vs total community in BBR group) was 1.65 and the “L2FC BBRDNA vs ControlDNA” value (OTU 350256 (Intestinimonas), total (DNA) community) was -0.23. For the same molecule, the “L2FC BBRRNA vs ControlRNA” value (OTU 356073 ([Eubacterium] xylanophilum group), active (cDNA) community) was -1.98, the “L2FC BBRRNA vs BBRDNA” value (OTU 356073 ([Eubacterium] xylanophilum group), active vs total community in BBR group) was -1.05 and the “L2FC BBRDNA vs ControlDNA” value (OTU 356073 ([Eubacterium] xylanophilum group), total (DNA) community) was -1.79. For the same molecule, the “L2FC BBRRNA vs ControlRNA” value (OTU 362793 (Oscillibacter), active (cDNA) community) was 0.13, the “L2FC BBRRNA vs BBRDNA” value (OTU 362793 (Oscillibacter), active vs total community in BBR group) was 2.11 and the “L2FC BBRDNA vs ControlDNA” value (OTU 362793 (Oscillibacter), total (DNA) community) was 0.33. For the same molecule, the “L2FC BBRRNA vs ControlRNA” value (OTU 364341 (Family_Ruminococcaceae), active (cDNA) community) was 0.25, the “L2FC BBRRNA vs BBRDNA” value (OTU 364341 (Family_Ruminococcaceae), active vs total community in BBR group) was 1.56 and the “L2FC BBRDNA vs ControlDNA” value (OTU 364341 (Family_Ruminococcaceae), total (DNA) community) was 0.20. The “L2FC BBRRNA vs ControlRNA” value (OTU 368615 (uncultured Lachnospiraceae), active (cDNA) community) was -0.96, the “L2FC BBRRNA vs BBRDNA” value (OTU 368615 (uncultured Lachnospiraceae), active vs total community in BBR group) was -1.57 and the “L2FC BBRDNA vs ControlDNA” value (OTU 368615 (uncultured Lachnospiraceae), total (DNA) community) was -0.96. The “L2FC BBRRNA vs ControlRNA” value (OTU 408513 (Ruminiclostridium 9), active (cDNA) community) was -3.12, the “L2FC BBRRNA vs BBRDNA” value (OTU 408513 (Ruminiclostridium 9), active vs total community in BBR group) was 1.43 and the “L2FC BBRDNA vs ControlDNA” value (OTU 408513 (Ruminiclostridium 9), total (DNA) community) was -2.29. The “L2FC BBRRNA vs ControlRNA” value (OTU 443620 (uncultured Ruminococcaceae), active (cDNA) community) was -0.74, the “L2FC BBRRNA vs BBRDNA” value (OTU 443620 (uncultured Ruminococcaceae), active vs total community in BBR group) was 0.61 and the “L2FC BBRDNA vs ControlDNA” value (OTU 443620 (uncultured Ruminococcaceae), total (DNA) community) was 0.83. For the same molecule, the “L2FC BBRRNA vs ControlRNA” value (OTU 461487 (Ruminococcaceae UCG-014), active (cDNA) community) was -0.55, the “L2FC BBRRNA vs BBRDNA” value (OTU 461487 (Ruminococcaceae UCG-014), active vs total community in BBR group) was -3.30 and the “L2FC BBRDNA vs ControlDNA” value (OTU 461487 (Ruminococcaceae UCG-014), total (DNA) community) was -0.15. For the same molecule, the “L2FC BBRRNA vs ControlRNA” value (OTU 510295 (Fournierella), active (cDNA) community) was 0.35, the “L2FC BBRRNA vs BBRDNA” value (OTU 510295 (Fournierella), active vs total community in BBR group) was -2.43 and the “L2FC BBRDNA vs ControlDNA” value (OTU 510295 (Fournierella), total (DNA) community) was 0.86. For the same molecule, the “L2FC BBRRNA vs ControlRNA” value (OTU 519763 (Intestinimonas), active (cDNA) community) was 1.22, the “L2FC BBRRNA vs BBRDNA” value (OTU 519763 (Intestinimonas), active vs total community in BBR group) was 2.52 and the “L2FC BBRDNA vs ControlDNA” value (OTU 519763 (Intestinimonas), total (DNA) community) was 1.10.
